Molecules are shown by their SMILES.

By DC50 is commonly meant the concentration giving 50% degradation. Broadly, the Dmax is the largest share of the target that was removed.

Experiment [1] has as its target T1, EGFR-L858R/T790M/C797S (Homo sapiens, UniProt P00533, C797S/L858R/T790M).
T1 construct: expressed in transfected cells; host or cells: H1975-clone #25 (lentiviral over-expression, endogenous EGFR knocked out)
As to the kind of experiment: EGFR degradation HTRF assay in H1975-clone #25 cells. The conditions noted are these: 16 h treatment; for DC50: H1975-clone #25 (L858R/T790M/C797S) cells, IC50 (DC50), read-out: DC50(nM) H1975 # 25-LTC; for Dmax: NCI-H1975, H1975-clone #25 (L858R/T790M/C797S) cells, maximum percentage of inhibition (degradation), read-out: Dmax (%) H1975 # 25-LTC. It counts as cell-based. In outline: (§1)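 H1975 clones with endogenous EGFR knocked out, homozygously expressing lentiviral L858R/T790M/C797S (#25) or Del19/T790M/C797S (#28), treated 16 h at 37° C with 8 doses from 10 uM, 5-fold, in 0.2% DMSO. EGFR in lysates measured by HTRF overnight; DC50 from four-parameter fit of % degradation.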
(In general: Time-resolved FRET reads energy transfer from a long-lived donor to a nearby acceptor.)

Experiment [2] concerns EGFR-Del19/T790M/C797S. As to the kind of experiment: EGFR degradation HTRF assay in H1975-clone #28 cells. In kind it is cell-based. As to conditions: H1975-clone #28 (Del19/T790M/C797S) cells, 16 h treatment; for DC50: IC50 (DC50), read-out: DC50(nM) H1975 # 28 DTC; for Dmax (%) H1975 # 28 DTC: maximum percentage of inhibition (degradation). The essentials: as §1

T1 sequence (P00533 25-1210 T790M/C797S/L858R): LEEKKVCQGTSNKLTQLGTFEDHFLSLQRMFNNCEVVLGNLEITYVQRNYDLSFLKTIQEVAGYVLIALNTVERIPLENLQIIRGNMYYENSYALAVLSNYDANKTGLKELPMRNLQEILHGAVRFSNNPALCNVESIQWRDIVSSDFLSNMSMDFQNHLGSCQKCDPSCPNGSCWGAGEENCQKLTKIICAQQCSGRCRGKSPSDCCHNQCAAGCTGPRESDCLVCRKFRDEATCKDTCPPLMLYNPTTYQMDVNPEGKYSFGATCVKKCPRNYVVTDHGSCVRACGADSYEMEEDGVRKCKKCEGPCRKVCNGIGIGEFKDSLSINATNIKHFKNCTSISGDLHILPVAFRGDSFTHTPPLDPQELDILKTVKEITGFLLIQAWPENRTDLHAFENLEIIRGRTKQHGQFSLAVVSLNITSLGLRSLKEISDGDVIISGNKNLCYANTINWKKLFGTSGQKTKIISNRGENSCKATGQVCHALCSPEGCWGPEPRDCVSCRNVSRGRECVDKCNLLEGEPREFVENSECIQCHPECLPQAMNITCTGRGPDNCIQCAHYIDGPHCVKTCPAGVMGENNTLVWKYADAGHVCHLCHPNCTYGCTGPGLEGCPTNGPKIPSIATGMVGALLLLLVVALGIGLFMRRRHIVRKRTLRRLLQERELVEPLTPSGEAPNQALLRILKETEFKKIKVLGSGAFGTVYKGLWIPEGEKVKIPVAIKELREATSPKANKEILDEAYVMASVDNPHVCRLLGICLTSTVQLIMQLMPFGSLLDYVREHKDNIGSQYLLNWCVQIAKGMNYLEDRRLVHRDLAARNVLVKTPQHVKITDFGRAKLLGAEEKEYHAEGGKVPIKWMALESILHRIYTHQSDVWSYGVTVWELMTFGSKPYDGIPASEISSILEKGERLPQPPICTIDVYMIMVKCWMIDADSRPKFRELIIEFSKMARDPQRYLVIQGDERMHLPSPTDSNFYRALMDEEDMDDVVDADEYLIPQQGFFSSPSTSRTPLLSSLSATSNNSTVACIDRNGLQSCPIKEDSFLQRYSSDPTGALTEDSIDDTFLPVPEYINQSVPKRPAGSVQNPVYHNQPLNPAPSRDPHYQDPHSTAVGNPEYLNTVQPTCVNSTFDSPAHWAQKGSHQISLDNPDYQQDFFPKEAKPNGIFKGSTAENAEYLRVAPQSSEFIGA

With `CCc1cc(Nc2ncc(Br)c(Nc3ccc4nc(C)c(F)cc4c3P(C)(C)=O)n2)c(OC)cc1N1CCC2(CC1)CCN(C1CCN(c3ccc4c(c3)C(=O)N(C3CCC(=O)NC3=O)C4=O)CC1)CC2` (centres unmarked) [Example 92, 5-(4-(9-(4-((5-bromo-4-((5-(dimethylphosphoryl)-3-fluoro-2-methylquinolin-6-yl)amino)pyrimidin-2-yl)amino)-2-ethyl-5-methoxyphenyl)-3,9-diazaspiro[5.5]undecan-3-yl)piperidin-1-yl)-2-(2,6-dioxopiperidin-3-yl)isoindoline-1,3-dione], in experiment [1], the DC50 worked out at 8.2 nM and the maximal degradation (Dmax) was found to be 85%. Further, in experiment [2], the DC50 amounted to 3.3 nM and the “Dmax (%) H1975 # 28 DTC” value came to 67%.
On the same counts, the results for `CCc1cc(Nc2ncc(Cl)c(Nc3ccc4nc(C)c(F)cc4c3P(C)(C)=O)n2)c(OC)cc1N1CCC2(CC1)CCN(C1CCN(c3cc(F)c([C@H]4CCC(=O)NC4=O)c(F)c3)CC1)CC2` [Example 2, (R)-3-(4-(4-(9-(4-((5-chloro-4-((5-(dimethylphosphoryl)-3-fluoro-2-methylquinolin-6-yl)amino)pyrimidin-2-yl)amino)-2-ethyl-5-methoxyphenyl)-3,9-diazaspiro[5.5]undecan-3-yl)piperidin-1-yl)-2,6-difluorophenyl)piperidine-2,6-dione] are 3.4 nM, 92%, 3.5 nM and 89%.
As to `CCOc1cc(N2CCC(N3CC4(CCN(c5cc(F)c([C@H]6CCC(=O)NC6=O)c(F)c5)CC4)C3)CC2)c(CC)cc1Nc1ncc(Cl)c(Nc2ccc3nc(C)c(F)cc3c2P(C)(C)=O)n1` [Example 59, (R)-3-(4-(2-(1-(4-((5-chloro-4-((5-(dimethylphosphoryl)-3-fluoro-2-methylquinolin-6-yl)amino)pyrimidin-2-yl)amino)-5-ethoxy-2-ethylphenyl)piperidin-4-yl)-2,7-diazaspiro[3.5]nonan-7-yl)-2,6-difluorophenyl)piperidine-2,6-dione], in experiment [1], the DC50 was found to be 2.7 nM and the Dmax was 92%. Besides, in experiment [2], the DC50 came to 3.8 nM and the “Dmax (%) H1975 # 28 DTC” value stood at 87%.
Taken in the same sequence, the figures for `CCc1cc(Nc2ncc(Br)c(Nc3ccc4nc(C)c(F)cc4c3P(C)(C)=O)n2)c(OC)cc1N1CCC(N2CC(CN3CCC(c4cc(F)c([C@H]5CCC(=O)NC5=O)c(F)c4)CC3)C2)CC1` [Example 56, (R)-3-(4-(1-((1-(1-(4-((5-bromo-4-((5-(dimethylphosphoryl)-3-fluoro-2-methylquinolin-6-yl)amino)pyrimidin-2-yl)amino)-2-ethyl-5-methoxyphenyl)piperidin-4-yl)azetidin-3-yl)methyl)piperidin-4-yl)-2,6-difluorophenyl)piperidine-2,6-dione] were 5.6 nM, 90%, 8.2 nM and 86%.
Take `CCc1ncc2c(P(C)(C)=O)c(Nc3nc(Nc4cc(CC)c(N5CCC6(CCN(CCc7cc(F)c([C@H]8CCC(=O)NC8=O)c(F)c7)CC6)CC5)cc4OC)ncc3Br)ccc2n1` [Example 40, (R)-3-(4-(2-(9-(4-((5-bromo-4-((5-(dimethylphosphoryl)-2-ethylquinazolin-6-yl)amino)pyrimidin-2-yl)amino)-2-ethyl-5-methoxyphenyl)-3,9-diazaspiro[5.5]undecan-3-yl)ethyl)-2,6-difluorophenyl)piperidine-2,6-dione]: in experiment [1], the DC50 amounted to 6 nM and the Dmax was 86%. Moreover, in experiment [2], the DC50 worked out at 2.4 nM and the “Dmax (%) H1975 # 28 DTC” value is 88%.

The values are drawn from patent publication US20240368203A1, “DEGRADATION OF (EGFR) BY CONJUGATION OF EGFR INHIBITORS WITH E3 LIGASE LIGAND AND METHODS OF USE” (BeiGene, Ltd., priority 2022, published 2024).
